This passage reports MIC and melting point results from US7645781B2, “N-aryl-2-oxazolidinone-5-carboxamides and their derivatives” (Pfizer Inc, priority 2002, dated 2010).

For data set [1], the system named is Staphylococcus aureus (SAUR 9213). Kind of data set: MIC by standard agar dilution method. As to conditions: Mueller Hinton agar, incubated overnight at 35° C., read-out: MIC. It counts as cell-based. The source says: The antibacterial agents of this invention have useful activity against a variety of organisms. The in vitro activity of compounds of this invention can be assessed by standard testing procedures such as the determination of minimum inhibitory concentration (MIC) by agar dilution as described in “Approved Standard. Methods for Dilution Antimicrobial Susceptibility Tests for Bacteria That Grow Aerobically”, 3rd. ed., published 1993 by the National Committee for Clinical Laboratory Standards, Villanova, Pa., USA. The in vitro MICs of test compounds are determined by a standard agar dilution method. A stock drug solution of each analog is prepared in the preferred solvent, usually DMSO:H2O (1:3). Serial 2-fold dilutions of each sample are made using 1.0 ml aliquots of sterile distilled water. To each 1.0 ml aliquot of drug is added 9 ml of molten Mueller Hinton agar medium. The drug-supplemented agar is mixed, poured into 15×100 mm petri dishes, and allowed to solidify and dry prior to inoculation. Vials of each of the test organisms are maintained frozen in the vapor phase of a liquid nitrogen freezer. Test cultures are grown overnight at 35° C. on the medium appropriate for the organism. Colonies are harvested with a sterile swab, and cell suspensions are prepared in Trypticase Soy broth (TSB) to equal the turbidity of a 0.5 McFarland standard. A 1:20 dilution of each suspension is made in TSB. The plates containing the drug supplemented agar are inoculated with a 0.001 ml drop of the cell suspension using a Steers replicator, yielding approximately 10^4 to 10^5 cells per spot. The plates are incubated overnight at 35° C. Following incubation the Minimum Inhibitory Concentration (MIC μg/ml), the lowest concentration of drug that inhibits visible growth of the organism, is read and recorded.
(In general: Agar dilution tests growth on a series of plates holding different concentrations.)

Each structure is given as a SMILES string. ≈ marks a conversion by molar mass, not a printed value. Bounds are passed on as bounds.

Molecule `NC(=O)[C@H]1CN(c2ccc(C3CCOCC3)c(F)c2)C(=O)O1` [Example 10, (5R)-(−)-3-[4-(Tetrahydro-2H-pyran-4-yl)-3-fluorophenyl]-2-oxo-5-oxazolidinecarboxamide] yielded a melting point of 153 to 156 °C. Also, the MIC in data set [1] stood at 4 µg/mL (≈ 13 µM).

Consider `NC(=O)[C@H]1CN(c2ccc(C3=CC[S+]([O-])CC3)c(F)c2)C(=O)O1` (stereo partly drawn) [Example 11, (5R)-3-[4-(3,6-Dihydro-2H-thiopyran-4-yl)-3-fluorophenyl]-2-oxo-5-oxazolidinecarboxamide S-oxide], for which the melting point was 182 to 184 °C (dec.). Further, the MIC in data set [1] came to 4 µg/mL (≈ 11.8 µM).

Take `NC(=O)[C@H]1CN(c2ccc(C3=CCS(=O)(=O)CC3)c(F)c2)C(=O)O1` [Example 12, (5R)-(−)-3-[4-(3,6-Dihydro-2H-thiopyran-4-yl)-3-fluorophenyl]-2-oxo-5-oxazolidinecarboxamide S,S-dioxide]: the melting point was 206 to 208 °C. Besides, the MIC in data set [1] came out at 2 µg/mL (≈ 5.64 µM).

Turning to `NC(=O)[C@H]1CN(c2ccc(C3CCS(=O)(=O)CC3)c(F)c2)C(=O)O1` [Example 13, (5R)-(−)-3-[4-(Tetrahydro-2H-thiopyran-4-yl)-3-fluorophenyl]-2-oxo-5-oxazolidinecarboxamide S,S-dioxide], the melting point was 229 to 231 °C (dec.). The MIC in data set [1] is 2 µg/mL (≈ 5.61 µM).

Regarding `NC(=O)[C@H]1CN(c2ccc(N3CCN(C(=O)CO)CC3)c(F)c2)C(=O)O1` [Example 14, (5R)-(−)-3-[3-Fluoro-4-[4-(hydroxyacetyl)-1-piperazinyl]phenyl]-2-oxo-5-oxazolidinecarboxamide], the melting point was 232 to 235 °C (dec.). In data set [1], the MIC came to 4 µg/mL (≈ 10.9 µM).

In the case of `NC(=O)[C@H]1CN(c2cc(F)c(N3CCS(=O)(=O)CC3)c(F)c2)C(=O)O1` [Example 15, (5R)-(−)-3-[4-(Thiomorpholin-4-yl)-3,5-difluorophenyl]-2-oxo-5-oxazolidinecarboxamide S,S-dioxide], the melting point was 245 to 248 °C (dec.). In data set [1], the MIC is 2 µg/mL (≈ 5.33 µM).

Take `NC(=O)[C@H]1CN(c2cc(F)c(N3CCOCC3)c(F)c2)C(=O)O1` [Example 17, (5R)-(−)-3-[3,5-Difluoro-4-(4-morpholinyl)phenyl]-2-oxo-5-oxazolidinecarboxamide]: the melting point is 181 to 183 °C. For the same molecule, the MIC in data set [1] was 4 µg/mL (≈ 12.2 µM).

`NC(=O)[C@H]1CN(c2ccc(N3CCS(=O)(=O)CC3)cc2)C(=O)O1` [Example 18, (5R)-(−)-3-[4-(Thiomorpholin-4-yl)phenyl]-2-oxo-5-oxazolidinecarboxamide S,S-dioxide] came in with a melting point of 226 to 228 °C. For the same molecule, the minimum inhibitory concentration (MIC) in data set [1] came to 16 µg/mL (≈ 47.1 µM).

As to `NC(=O)[C@H]1CN(c2ccc(N3CCS(=O)(=O)CC3)c(F)c2)C(=O)O1` [Example 20, (5R)-(−)-3-[3-Fluoro-4-(thiomorpholin-4-yl)phenyl]-2-oxo-5-oxazolidinecarboxamide S,S-dioxide], the melting point was 245 to 247 °C (dec.). In data set [1], the MIC came to 4 µg/mL (≈ 11.2 µM).

Consider `NC(=O)[C@H]1CN(c2ccc(N3CC[S+]([O-])CC3)c(F)c2)C(=O)O1` [Example 21, (5R)-(−)-3-[3-Fluoro-4-(thiomorpholin-4-yl)phenyl]-2-oxo-5-oxazolidinecarboxamide S-oxide], for which the melting point is 264 to 266 °C (dec.). Besides, the MIC in data set [1] was found to be 8 µg/mL (≈ 23.4 µM).

Consider `NC(=O)[C@H]1CN(c2cc(F)c(N3CC[S+]([O-])CC3)c(F)c2)C(=O)O1` [Example 22, (5R)-(−)-3-[3,5-Difluoro-4-(thiomorpholin-4-yl)phenyl]-2-oxo-5-oxazolidinecarboxamide S-oxide], for which the melting point is 273 to 276 °C (dec.). Moreover, the MIC in data set [1] came to 4 µg/mL (≈ 11.1 µM).

For `NC(=O)[C@H]1CN(c2ccc([C@H]3CC[S@@+]([O-])CC3)c(F)c2)C(=O)O1` [Example 23, (5R)-3-[3-Fluoro-4-(cis-tetrahydro-1-oxido-2H-thiopyran-4-yl)phenyl]-2-oxo-5-oxazolidinecarboxamide], the melting point is 279 to 281 °C (dec.). The MIC in data set [1] was determined as 4 µg/mL (≈ 11.8 µM).

`NC(=O)[C@H]1CN(c2ccc([C@H]3CC[S@+]([O-])CC3)c(F)c2)C(=O)O1` [Example 24, (5R)-3-[3-Fluoro-4-(trans-tetrahydro-1-oxido-2H-thiopyran-4-yl)phenyl]-2-oxo-5-oxazolidinecarboxamide] showed a melting point of 201 to 203 °C. In addition, in data set [1], the MIC was determined as 2 µg/mL (≈ 5.88 µM).

Turning to `NC(=O)[C@H]1CN(c2ccc(C3CCS(=O)(=O)CC3)cc2)C(=O)O1` [Example 25, (5R)-(−)-3-[4-(tetrahydro-2H-thiopyran-4-yl)phenyl]-2-oxo-5-oxazolidinecarboxamide S,S-dioxide], the melting point is 211 to 212 °C. In addition, the MIC in data set [1] worked out at 8 µg/mL (≈ 23.6 µM).

With `NC(=O)[C@H]1CN(c2ccc([C@H]3CC[S@@+]([O-])CC3)cc2)C(=O)O1` [Example 26, (5R)-3-[4-(cis-tetrahydro-1-oxido-2H-thiopyran-4-yl)phenyl]-2-oxo-5-oxazolidinecarboxamide], the melting point was 269 to 273 °C (dec.). For the same molecule, the MIC in data set [1] amounted to 16 µg/mL (≈ 49.6 µM).

As for `NC(=O)[C@H]1CN(c2ccc([C@H]3CC[S@+]([O-])CC3)cc2)C(=O)O1` [Example 27, (5R)-3-[4-(trans-tetrahydro-1-oxido-2H-thiopyran-4-yl)phenyl]-2-oxo-5-oxazolidinecarboxamide], the melting point fell in the range of 174 to 175 °C. Moreover, in data set [1], the minimal inhibitory concentration (MIC) was determined as 8 µg/mL (≈ 24.8 µM).

Take `Cn1c(=O)sc2cc(N3C[C@H](C(N)=O)OC3=O)ccc21` [Example 29, (5R)-(−)-3-(2,3-Dihydro-3-methyl-2-oxo-6-benzothiazolyl)-2-oxo-5-oxazolidinecarboxamide]: the melting point was 274 to 276 °C (dec.). For the same molecule, in data set [1], the MIC was found to be 1 µg/mL (≈ 3.41 µM).

Consider `CCn1c(=O)sc2cc(N3C[C@H](C(N)=O)OC3=O)ccc21` [Example 30, (5R)-(−)-3-(2,3-Dihydro-3-ethyl-2-oxo-6-benzothiazolyl)-2-oxo-5-oxazolidinecarboxamide], for which the melting point was 211 to 212.5 °C. Further, the MIC in data set [1] was 1 µg/mL (≈ 3.25 µM).

For `CC(C)n1c(=O)sc2cc(N3C[C@H](C(N)=O)OC3=O)ccc21` [Example 31, (5R)-(−)-3-(2,3-Dihydro-3-isopropyl-2-oxo-6-benzothiazolyl)-2-oxo-5-oxazolidinecarboxamide], the melting point was in the range of 183 to 184.5 °C. The MIC in data set [1] amounted to 1 µg/mL (≈ 3.11 µM).

`CNC(=O)[C@H]1CN(c2ccc3c(c2)sc(=O)n3C)C(=O)O1` [Example 32, (5R)-(−)-N-Methyl-3-(2,3-dihydro-3-methyl-2-oxo-6-benzothiazolyl)-2-oxo-5-oxazolidinecarboxamide] returned a melting point of 264 to 267 °C. The MIC in data set [1] came to 1 µg/mL (≈ 3.25 µM).

As to `CCNC(=O)[C@H]1CN(c2ccc3c(c2)sc(=O)n3C)C(=O)O1` [Example 33, (5R)-(−)-N-Ethyl-3-(2,3-dihydro-3-methyl-2-oxo-6-benzothiazolyl)-2-oxo-5-oxazolidinecarboxamide], the melting point lay in the range of 224.5 to 226 °C. In addition, the MIC in data set [1] was 4 µg/mL (≈ 12.4 µM).

For the molecule `Cn1c(=O)sc2cc(N3C[C@H](C(=O)NCCO)OC3=O)ccc21` [Example 34, (5R)-(−)-N-(2-Hydroxyethyl)-3-(2,3-dihydro-3-methyl-2-oxo-6-benzothiazolyl)-2-oxo-5-oxazolidinecarboxamide], the melting point fell in the range of 217 to 219 °C. Also, the MIC in data set [1] is 8 µg/mL (≈ 23.7 µM).

The molecule `Cn1c(=O)sc2cc(N3C[C@H](C(=O)NCCF)OC3=O)ccc21` [Example 35, (5R)-N-(2-Fluoroethyl)-3-(2,3-dihydro-3-methyl-2-oxo-6-benzothiazolyl)-2-oxo-5-oxazolidinecarboxamide] displayed a melting point of 201 to 203 °C. The MIC in data set [1] was 2 µg/mL (≈ 5.89 µM).

`CCn1c(=O)sc2cc(N3C[C@H](C(=O)NC)OC3=O)ccc21` [Example 36, (5R)-(−)-N-Methyl-3-(2,3-dihydro-3-ethyl-2-oxo-6-benzothiazolyl)-2-oxo-5-oxazolidinecarboxamide] registered a melting point of 227 to 229 °C. Moreover, in data set [1], the MIC worked out at 2 µg/mL (≈ 6.22 µM).

Take `CNC(=O)[C@H]1CN(c2ccc3c(c2)sc(=O)n3C(C)C)C(=O)O1` [Example 37, (5R)-(−)-N-Methyl-3-(2,3-dihydro-3-isopropyl-2-oxo-6-benzothiazolyl)-2-oxo-5-oxazolidinecarboxamide]: the melting point is 172 to 173.5 °C. The MIC in data set [1] was determined as 2 µg/mL (≈ 5.96 µM).

Molecule `Cn1c(=O)oc2cc(N3C[C@H](C(N)=O)OC3=O)ccc21` [Example 38, (5R)-(−)-3-(2,3-dihydro-3-methyl-2-oxo-6-benzoxazolyl)-2-oxo-5-oxazolidinecarboxamide] had a melting point greater than 260 °C. Moreover, the MIC in data set [1] came to 1 µg/mL (≈ 3.61 µM).

Molecule `CCn1c(=O)oc2cc(N3C[C@H](C(N)=O)OC3=O)ccc21` [Example 39, (5R)-(−)-3-(2,3-Dihydro-3-ethyl-2-oxo-6-benzoxazolyl)-2-oxo-5-oxazolidinecarboxamide] gave a melting point of 234 to 236 °C. Also, the MIC in data set [1] came out at 1 µg/mL (≈ 3.43 µM).

What is called MIC is the smallest concentration in the dilution series that meets the test's criterion for growth inhibition. Broadly, the melting point is the temperature, or range, at which the solid turns liquid.
